Counter-ions that a name gives are not always drawn.
Legend:
Format in all cases: biochemical
[1] = target: T1, human CGT (ceramide galactosyltransferase), CHO/CGT lysate (Homo sapiens, UniProt Q16880); assay: CGT enzyme assay, RapidFire/MS/MS readout (Table 1 ranges with one asterisk *); conditions: RapidFire method (range with one asterisk *)
T1 construct: Full-length human CGT cDNA was cloned into the BamH1/Xho1 site of pcDNA3.1 (+); expressed in transfected cells; host or cells: Chinese hamster ovary (CHO) cells; lysate prepared with M-PER
T1 sequence (Q16880 21-541): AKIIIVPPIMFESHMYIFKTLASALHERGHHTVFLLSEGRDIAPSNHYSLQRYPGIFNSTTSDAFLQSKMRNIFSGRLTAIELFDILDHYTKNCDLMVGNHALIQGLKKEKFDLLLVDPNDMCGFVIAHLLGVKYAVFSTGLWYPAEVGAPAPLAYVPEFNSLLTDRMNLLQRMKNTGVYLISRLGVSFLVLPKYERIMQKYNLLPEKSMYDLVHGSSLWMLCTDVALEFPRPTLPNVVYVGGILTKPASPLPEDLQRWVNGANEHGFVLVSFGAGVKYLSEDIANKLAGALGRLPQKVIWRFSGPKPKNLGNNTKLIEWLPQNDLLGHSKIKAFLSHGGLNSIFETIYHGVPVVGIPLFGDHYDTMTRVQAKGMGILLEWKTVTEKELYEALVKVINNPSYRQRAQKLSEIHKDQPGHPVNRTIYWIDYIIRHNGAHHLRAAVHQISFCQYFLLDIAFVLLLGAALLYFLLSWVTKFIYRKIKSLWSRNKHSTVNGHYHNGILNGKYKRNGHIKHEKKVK
Procedure, shortened: (§1)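 IC50s come from variable-slope dose-response fits of internal-standard-normalized C6-NBD-dihydro-galactosylceramide, measured by RapidFire/MS/MS (ESI negative). Reactions: 1 h, 37 °C, human CGT-expressing CHO lysate (4 μg), 0.001–50 μM compound, 10 μM NBD-dihydro-ceramide, 17.5 μM UDP-galactose, 0.5% DMSO, pH 7.2; 0.01% Tween 80 added for ** values.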

[2] = target: T1, human CGT (ceramide galactosyltransferase), CHO/CGT lysate; assay: CGT enzyme assay, LC-MS/MS readout (Table 1 ranges without asterisk); conditions: LC-MS/MS method (range without asterisk)
Procedure, shortened: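 Lysate of CHO cells transfected with full-length human CGT incubated 1 h at 37 °C with compound (0.001–50 μM) in HEPES pH 7.2 with 17.5 μM UDP-galactose and C12:0 (2R-OH) ceramide substrate, 0.5% DMSO, no Tween 80. Galactosylceramide product quantified by LC-MS/MS against C12 ceramide internal standard; IC50 calculated.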

[3] = target: T1, human CGT (ceramide galactosyltransferase), CHO/CGT lysate; assay: CGT enzyme assay, RapidFire/MS/MS readout with 0.01% Tween added (Table 1 ranges with two asterisks **); conditions: CGT enzyme assay, RapidFire/MS/MS method with 0.01% Tween added (range with two asterisks **)
Procedure, shortened: as §1

Structure (SMILES): CC(C)Oc1ccc2cc(S(=O)(=O)N[C@H](C(=O)N3C4CCC3CC(N)C4)C(F)(F)c3ccc(Br)cc3)ccc2c1 (stereo partly drawn) [Compound 1-1, N-((2R)-3-(3-amino-8-azabicyclo[3.2.1]octan-8-yl)-1-(4-bromophenyl)-1,1-difluoro-3-oxopropan-2-yl)-6-isopropoxynaphthalene-2-sulfonamide]
- IC50 [1]: 1 to 10 µM
- IC50 [2]: 1 to 10 µM

Structure (SMILES): CC(C)Oc1ccc2cc([C@@H](O)C(=O)N[C@@H](C(=O)N3C4CCC3CC(N)C4)C(F)(F)c3ccc(Br)cc3)ccc2c1 (stereo partly drawn) [Compound 19-4, (2R)—N-((2S)-3-(3-amino-8-azabicyclo[3.2.1]octan-8-yl)-1-(4-bromophenyl)-1,1-difluoro-3-oxopropan-2-yl)-2-hydroxy-2-(6-isopropoxynaphthalen-2-yl)acetamide trifluoroacetate]
- IC50 [1]: 30 to 100 µM
- IC50 [2]: 30 to 100 µM

Structure (SMILES): NC1CC2CCC(C1)N2C(=O)[C@@H](NS(=O)(=O)c1ccc2cc(OC3CCCC3)ccc2c1)C(F)(F)c1ccc(Br)cc1 (stereo partly drawn) [Compound 5-1, N-((2R)-3-(3-amino-8-azabicyclo[3.2.1]octan-8-yl)-1-(4-bromophenyl)-1,1-difluoro-3-oxopropan-2-yl)-6-(cyclopentyloxy)naphthalene-2-sulfonamide]
- IC50 [3]: < 1 µM
- IC50 [1]: < 1 µM
- IC50 [2]: < 1 µM

Structure (SMILES): CC(C)Oc1ccc2cc(S(=O)(=O)N[C@H](C(=O)N3C4CCC3CC(N)C4)C(F)(F)c3ccc(Cl)cc3)ccc2c1 (stereo partly drawn) [Compound 8-1, N-((2R)-3-(3-amino-8-azabicyclo[3.2.1]octan-8-yl)-1-(4-chlorophenyl)-1,1-difluoro-3-oxopropan-2-yl)-6-isopropoxynaphthalene-2-sulfonamide trifluoroacetate]
- IC50 [1]: 1 to 10 µM
- IC50 [2]: 1 to 10 µM

Structure (SMILES): CC[C@H](C)Oc1ccc2cc(S(=O)(=O)N[C@H](C(=O)N3C4CCC3CC(N)C4)C(F)(F)c3ccc(Br)cc3)ccc2c1 (stereo partly drawn) [Compound 13-3, N-((2R)-3-(3-amino-8-azabicyclo[3.2.1]octan-8-yl)-1-(4-bromophenyl)-1,1-difluoro-3-oxopropan-2-yl)-6-((S)-sec-butoxy)naphthalene-2-sulfonamide]
- IC50 [2]: 1 to 10 µM

Structure (SMILES): CC(C)Oc1ccc2cc(CCS(=O)(=O)NC(C(=O)N3C4CCC3CC(N)C4)C(F)(F)c3ccc(Br)cc3)ccc2c1 (stereo not drawn) [Compound 4, N-(3-(3-amino-8-azabicyclo[3.2.1]octan-8-yl)-1-(4-bromophenyl)-1,1-difluoro-3-oxopropan-2-yl)-2-(6-isopropoxynaphthalen-2-yl)ethanesulfonamide trifluoroacetate]
- IC50 [2]: 10 to 30 µM

Structure (SMILES): NC1CC2CCC(C1)N2C(=O)C(NS(=O)(=O)c1ccc(-c2ccc(F)cc2)cc1)C(F)(F)c1ccc(Br)cc1 (stereo not drawn) [Compound 3, N-(3-(3-amino-8-azabicyclo[3.2.1]octan-8-yl)-1-(4-bromophenyl)-1,1-difluoro-3-oxopropan-2-yl)-4′-fluoro-[1,1′-biphenyl]-4-sulfonamide]
- IC50 [2]: 10 to 30 µM

Structure (SMILES): NC1CC2CCC(C1)N2C(=O)[C@H](NS(=O)(=O)c1ccc2cc(OCc3ccccc3)ccc2c1)C(F)(F)c1ccc(Br)cc1 (stereo partly drawn) [Compound 24-2, N-((2S)-3-(3-amino-8-azabicyclo[3.2.1]octan-8-yl)-1-(4-bromophenyl)-1,1-difluoro-3-oxopropan-2-yl)-6-(benzyloxy)naphthalene-2-sulfonamide]
- IC50 [2]: 30 to 100 µM

Structure (SMILES): NC1CC2CCC(C1)N2C(=O)C(NS(=O)(=O)c1ccc2cc(OC3CCCC3)ccc2c1)C(F)(F)c1ccc(Br)cc1 (stereo not drawn) [Compound 5, N-(3-(3-amino-8-azabicyclo[3.2.1]octan-8-yl)-1-(4-bromophenyl)-1,1-difluoro-3-oxopropan-2-yl)-6-(cyclopentyloxy)naphthalene-2-sulfonamide trifluoroacetate]
- IC50 [2]: 1 to 10 µM

Structure (SMILES): CC(C)Oc1ccc2cc(S(=O)(=O)N[C@H](C(=O)N3CCC(N)CC3)C(F)(F)c3ccc(Br)cc3)ccc2c1 [Compound 27-1, (R)—N-(3-(4-aminopiperidin-1-yl)-1-(4-bromophenyl)-1,1-difluoro-3-oxopropan-2-yl)-6-isopropoxynaphthalene-2-sulfonamide trifluoroacetate]
- IC50 [2]: 1 to 10 µM
